These results are taken from patent US20230265083A1, “Heterocycle CDK Inhibitors And Their Use Thereof” (Prelude Therapeutics Incorporated, priority 2020, published 2023).

One assay has as its system H929 cells. Description: CellTiter-Glo Protocol (Proliferation). To be noted: Homo sapiens, NCI-H929, 24 hours, read-out: PROLIFERATION_CTG_H929 IC50. Format: cell-based. Here is the method:
CellTiter-Glo® Protocol (Proliferation)
Dispense 10 μL aliquot of prepared H929 cells (1:1 ratio of cells: Trypan Blue (#1450013, Bio-Rad)) onto cell counting slide (#145-0011, Bio-Rad) and obtain cell density and cell viability using a cell counter (TC20, Bio-Rad). Remove appropriate volume of resuspended cells from culture flask to accommodate 4000 cells/well at 10 μL/well. Transfer H929 cells to 50 mL conical (#430290, Corning). Spin down at 1000 rpm for 5 min. using a tabletop centrifuge (SPINCHRON 15, Beckman). Discard supernatant and resuspend cell pellet in modified RPMI 1640 (#10-040-CV, Corning) cell culture media containing 10% FBS (F2422-500ML, Sigma), sodium pyruvate (100 mM) (#25-000-CL, Corning), HEPES buffer (1M) (#25-060-CL, Corning) and glucose (200 g/L) (A24940-01, Gibco) to a cell density of 400,000 cells/mL. Dispense 10 μL of resuspended H929 cells per well in 384-well small volume TC treated plate (#784080, Greiner Bio-one) using standard cassette (#50950372, Thermo Scientific) on Multidrop Combi (#5840310, Thermo Scientific) in laminar flow cabinet. Dispense compounds onto plates using a digital liquid dispenser (D300E, Tecan). Incubate plates in humidified tissue culture incubator at 37° C. for 24 hours. Add 10 μL of prepared CellTiTer-Glo® detection buffer (G7570, Promega) to each well of 384-well plate using small tube cassette (#24073295, Thermo Scientific) on Combi multi-drop, incubate at RT for 30-60 min. Read plates with a microplate reader (PheraStar, BMG Labtech) using 384 well luminescence mode. See Table B (Proliferation_CTG_H929).
Background: ATP-based viability assays read luminescence as a measure of living cells.

In a further assay the target is T1, CDK2/Cyclin A2 (Homo sapiens, UniProt P24941).
T1 construct: purchased ProQinase; host or cells: insect cell
The experiment in a line: CDK2/CyclinA2 Enzymatic Activity Assay (TR-FRET). Format: biochemical. To be noted: ATP 1 mM, recombinant CDK2/Cyclin A2 1 nM, read-out: CDK2_A2 IC50. The protocol:
CDK2/CyclinA2 Enzymatic Activity Assay
(§1) The inhibitory activity of compounds was evaluated in vitro using TR-FRET assay with white 384-well low volume microplate (Greiner Bio-One). CDK2/Cyclin A2 catalyzed phosphorylation of peptides in the presence and absence of compounds was measured and used in IC50 determination. Recombinant protein complex CDK2/Cyclin A2, expressed from insect cell, was purchased from ProQinase. Testing compounds were dissolved in DMSO at 1 mM and tested in 9-dose IC50 mode. The reaction mixture was prepared by mixing CDK2/CyclinA2 (1 nM final), ULight-4E-BP1 (50 nM final, Perkinelmer, TRF0128-D), and ATP (1 mM final) in assay buffer (20 mM of HEPES pH 7.4, 1 mM of EGTA, 0.05% BSA, 0.005% Tween 20, and 1 mM TCEP). The compound of interest in DMSO was added to each well in 3-fold serial dilution by the dispenser (TECAN D300E) to make a 9.9 μL of the reaction mixture. After 20 minutes preincubation at room temperature, 0.1 μL MgCl2 (10 mM final) was added to initiate the reaction. Following a 45 minutes incubation at 37° C., the reaction was stopped by addition of 2 μL of quenching buffer consisting of Lance detection buffer (Perkinelmer CR97-100C), LANCE Ultra Europium-anti-P-4E-BP1 (Perkinelmer, TRF0216-D), EDTA, and incubate at room temperature for additional 60 minutes in the dark. The reaction signal was measured by Envision multimode plate reader (PerkinElmer, 2102-0010). IC50 values were determined by fitting the data to the standard 4 parameters with Hill Slope using GraphPad Prism software.

In a further assay the target is T2, CDK9/Cyclin T1 (Homo sapiens, UniProt P50750).
T2 construct: purchased ProQinase; host or cells: insect cell
The experiment in a line: CDK9/CyclinT1 Enzymatic Activity Assay (TR-FRET). Conditions: ATP 1 mM, recombinant CDK9/Cyclin T1 1 nM, read-out: CDK9_T1 IC50. Type of assay: biochemical. Here is the method: CDK9/CyclinT1 Enzymatic Activity Assay
as §1, with “(Greiner Bio-One). CDK9/Cyclin T1 catalyzed phosphorylation” for “(Greiner Bio-One). CDK2/Cyclin A2 catalyzed phosphorylation”, “protein complex CDK9/Cyclin T1, expressed from” for “protein complex CDK2/Cyclin A2, expressed from”, “by mixing CDK9/CyclinT1 (1 nM” for “by mixing CDK2/CyclinA2 (1 nM”, “20 minutes of preincubation at” for “20 minutes preincubation at”, “stopped by the addition of” for “stopped by addition of”
(TR-FRET usually uses a lanthanide donor and a delayed reading to cut background.)

The next assay deals with T3, CDK4/Cyclin D1 (Homo sapiens, UniProt P11802).
T3 construct: purchased ProQinase; host or cells: insect cell
Description: CDK4/CyclinD1 Enzymatic Activity Assay (TR-FRET). Format: biochemical. To be noted: ATP 2 mM, recombinant CDK4/Cyclin D1 1 nM, read-out: CDK4_D1 IC50. Here is the method:
CDK4/CyclinD1 Enzymatic Activity Assay
The inhibitory activity of compounds was evaluated in vitro using TR-FRET assay with white 384-well low volume microplate (Greiner Bio-One). CDK4/Cyclin D1 catalyzed phosphorylation of peptides in the presence and absence of compounds was measured and used in IC50 determination. Recombinant protein complex CDK4/Cyclin D1, expressed from insect cell, was purchased from ProQinase. Testing compounds were dissolved in DMSO at 1 mM and tested in 9-dose IC50 mode. The reaction mixture was prepared by mixing CDK4/CyclinD1 (1 nM final), ULight-4E-BP1 (100 nM final, Perkinelmer, TRF0128-D), and ATP (2 mM final) in assay buffer (20 mM of HEPES pH 7.4, 1 mM of EGTA, 0.05% BSA, 0.005% Tween 20, and 1 mM TCEP). The compound of interest in DMSO was added to each well in 3-fold serial dilution by the dispenser (TECAN D300E) to make a 9.9 μL of the reaction mixture. After 20 minutes of preincubation at room temperature, 0.1 μL MgCl2 (10 mM final) was added to initiate the reaction. Following a 45 minutes incubation at 37° C., the reaction was stopped by the addition of 2 μL of quenching buffer consisting of Lance detection buffer (Perkinelmer CR97-100C), LANCE Ultra Europium-anti-P-4E-BP1 (Perkinelmer, TRF0216-D), EDTA, and incubate at room temperature for additional 60 minutes in the dark. The reaction signal was measured by Envision multimode plate reader (PerkinElmer, 2102-0010). IC50 values were determined by fitting the data to the standard 4 parameters with Hill Slope using GraphPad Prism software.

T3 sequence (P11802 whole entry): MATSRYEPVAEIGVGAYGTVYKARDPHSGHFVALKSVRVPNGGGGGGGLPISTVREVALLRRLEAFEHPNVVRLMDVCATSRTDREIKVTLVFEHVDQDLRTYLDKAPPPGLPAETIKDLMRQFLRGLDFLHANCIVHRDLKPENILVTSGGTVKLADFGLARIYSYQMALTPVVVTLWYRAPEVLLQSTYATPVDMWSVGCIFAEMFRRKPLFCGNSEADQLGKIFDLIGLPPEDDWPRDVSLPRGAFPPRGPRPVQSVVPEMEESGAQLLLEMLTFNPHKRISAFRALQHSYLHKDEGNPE
T3 sequence (P24385 whole entry partner): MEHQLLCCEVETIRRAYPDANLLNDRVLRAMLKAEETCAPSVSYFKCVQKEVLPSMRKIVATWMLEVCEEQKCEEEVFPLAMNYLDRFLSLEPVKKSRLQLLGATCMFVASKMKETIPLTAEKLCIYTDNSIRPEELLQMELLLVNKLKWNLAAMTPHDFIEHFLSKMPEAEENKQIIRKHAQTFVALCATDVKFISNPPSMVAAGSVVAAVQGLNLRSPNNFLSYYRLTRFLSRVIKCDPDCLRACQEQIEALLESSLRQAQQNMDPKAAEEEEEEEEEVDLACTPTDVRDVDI
T2 sequence (P50750 whole entry): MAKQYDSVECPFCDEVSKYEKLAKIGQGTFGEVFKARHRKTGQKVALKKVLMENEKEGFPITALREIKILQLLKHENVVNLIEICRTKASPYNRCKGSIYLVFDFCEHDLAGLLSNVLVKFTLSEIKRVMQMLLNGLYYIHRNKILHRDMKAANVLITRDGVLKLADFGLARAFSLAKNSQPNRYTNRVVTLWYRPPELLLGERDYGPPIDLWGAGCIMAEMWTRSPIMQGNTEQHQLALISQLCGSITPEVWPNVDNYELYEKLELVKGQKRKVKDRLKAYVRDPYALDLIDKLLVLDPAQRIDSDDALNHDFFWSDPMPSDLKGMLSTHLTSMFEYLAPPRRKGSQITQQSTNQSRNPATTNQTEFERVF
T2 sequence (O60563 whole entry partner): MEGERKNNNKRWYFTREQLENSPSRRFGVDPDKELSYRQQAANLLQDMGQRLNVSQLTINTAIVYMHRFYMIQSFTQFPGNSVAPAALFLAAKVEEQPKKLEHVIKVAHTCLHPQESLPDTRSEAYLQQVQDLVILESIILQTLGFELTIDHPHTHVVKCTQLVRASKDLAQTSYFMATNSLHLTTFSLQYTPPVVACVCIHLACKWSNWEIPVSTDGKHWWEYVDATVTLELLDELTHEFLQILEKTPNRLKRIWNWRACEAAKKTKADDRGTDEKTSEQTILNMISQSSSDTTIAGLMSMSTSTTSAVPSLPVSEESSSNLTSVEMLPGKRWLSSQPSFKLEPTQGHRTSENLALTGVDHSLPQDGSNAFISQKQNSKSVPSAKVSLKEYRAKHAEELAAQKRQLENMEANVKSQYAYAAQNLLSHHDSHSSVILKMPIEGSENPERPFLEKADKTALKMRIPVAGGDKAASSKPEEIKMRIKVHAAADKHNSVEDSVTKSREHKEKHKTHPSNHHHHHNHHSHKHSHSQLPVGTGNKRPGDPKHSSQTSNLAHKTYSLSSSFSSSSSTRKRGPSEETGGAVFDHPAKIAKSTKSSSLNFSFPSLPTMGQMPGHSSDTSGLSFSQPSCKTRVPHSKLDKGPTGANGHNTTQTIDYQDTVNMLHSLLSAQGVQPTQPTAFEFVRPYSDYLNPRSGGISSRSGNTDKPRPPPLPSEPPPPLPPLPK

For the compound `CC(=O)N[C@@H]1CCC[C@H](C(=O)Nc2cc(-c3cccc4c3CC(C)(C)N4)c(Cl)cn2)C1` [Example 5, (1S,3R)-3-acetamido-N-(5-chloro-4-(2,2-dimethylindolin-4-yl)pyridin-2-yl)cyclohexane-1-carboxamide], the IC50 in the assay on H929 cells is 20 to 200 nM; on CDK2/Cyclin A2, greater than 1000 nM; on CDK9/Cyclin T1, less than 20 nM; at CDK4/Cyclin D1, 20 to 200 nM.

Regarding `Cc1cnc(NC(=O)[C@H]2CCC[C@@H](NC(=O)CC#N)C2)cc1-c1cccc2c1OCC(C)(C)N2` [Example 7, (1S,3R)-3-(2-cyanoacetamido)-N-(4-(3,3-dimethyl-3,4-dihydro-2H-benzo[b][1,4]oxazin-8-yl)-5-methylpyridin-2-yl)cyclohexane-1-carboxamide], the IC50 in the assay with H929 cells is 200 to 1000 nM; on CDK2/Cyclin A2 it was greater than 1000 nM; at CDK9/Cyclin T1 it was 20 to 200 nM; at CDK4/Cyclin D1, greater than 1000 nM.

In the case of `Cc1cnc(NC(=O)[C@H]2CCC[C@@H](NC(=O)CC#N)C2)cc1-c1cccc2c1OCCN2` [Example 8, (1S,3R)-3-(2-cyanoacetamido)-N-(4-(3,4-dihydro-2H-benzo[b][1,4]oxazin-8-yl)-5-methylpyridin-2-yl)cyclohexane-1-carboxamide], the IC50 is 200 to 1000 nM in the assay on H929 cells, greater than 1000 nM on CDK2/Cyclin A2, 20 to 200 nM on CDK9/Cyclin T1 and greater than 1000 nM at CDK4/Cyclin D1.
